The numbers were not newly measured in patent US20090145189A1, “Composition and a manufacturing method thereof” (priority 2007, published 2009), which cites them from elsewhere.

The conditions of data set [1]: concentrations above 40 wt %, such as 50 wt %.

As to `O=C(O)CN(CCN(CC(=O)O)CC(=O)O)CCN(CC(=O)O)CC(=O)O` [DTPA, diethylenetriamine-N,N,N-penta-acetic acid], the Water solubility entry is on record as “low water solubility”.
Turning to `O=C([O-])CN(CCN(CC(=O)[O-])CC(=O)[O-])CCN(CC(=O)[O-])CC(=O)[O-].[Na+].[Na+].[Na+].[Na+].[Na+]` [DTPANa5, penta sodium salt of diethylenetriamine-N,N,N-penta-acetic acid], in data set [1], the Viscosity entry is “too viscous to allow convenient handling”.
